Assay results reported in patent US9695155B2, “Herbicidal substituted pyrimidinyloxy benzene compounds” (E. I. DU PONT DE NEMOURS AND COMPANY, priority 2013, dated 2017).

Assays:
cocklebur = assay: Test E preemergence; assay type: in vivo, Xanthium strumarium; conditions: for Plant response rating, Cocklebur: scale 0 to 100, 0 no effect, 100 complete control
Procedure, shortened: (§1)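 Compound in a non-phytotoxic solvent mixture with surfactant was applied preemergence to seeds in silt loam soil, or postemergence to plants 2 to 18 cm tall grown in peat-based potting medium. Plants were kept in a greenhouse for 14 to 21 days, then rated visually against untreated controls on a 0 (no effect) to 100 (complete control) scale.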

spring barley = assay: Test D postemergence; assay type: in vivo, Hordeum vulgare; conditions: Hordeum vulgare, post-emergence, Postemergence, scale 0 to 100 (0 no effect, 100 complete control), read-out: Plant response rating, Barley, Spring
Procedure, shortened: (§2)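 After treatment, visual injury versus untreated plants, 0–100 scale, assessed at 7 to 21 days. Applications were made preemergence to silt loam-sown seed and postemergence to seedlings 2–18 cm high in potting medium.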

winter barley [1] = assay: Test D postemergence; assay type: in vivo, Hordeum vulgare; conditions: Hordeum vulgare, post-emergence, Postemergence, scale 0 to 100 (0 no effect, 100 complete control), read-out: Plant response rating, Barley, Winter
Procedure, shortened: as §2

field violet = assay: Test D preemergence; assay type: in vivo, Viola arvensis; conditions: Viola arvensis, pre-emergence, scale 0-100, read-out: Plant response rating, Field Violet
Procedure, shortened: as §2

deadnettle = assay: Test D preemergence; assay type: in vivo, Lamium amplexicaule; conditions: Lamium amplexicaule, pre-emergence, scale 0-100, read-out: Plant response rating, Deadnettle
Procedure, shortened: as §2

winter barley [2] = assay: Test D preemergence; assay type: in vivo, Hordeum vulgare; conditions: Hordeum vulgare, pre-emergence, scale 0-100, read-out: Plant response rating, Barley, Winter
Procedure, shortened: as §2

Italian ryegrass = assay: Test E postemergence; assay type: in vivo, Lolium multiflorum; conditions: Lolium multiflorum, post-emergence, read-out: Plant response rating, Ryegrass, Italian
Procedure, shortened: as §1

galium = assay: Test D postemergence; assay type: in vivo, Galium aparine; conditions: Galium, post-emergence, scale 0 to 100 (0 no effect, 100 complete control), read-out: Plant response rating, Galium
Procedure, shortened: as §2

winter wheat = assay: Test D preemergence; assay type: in vivo, Triticum aestivum; conditions: Triticum aestivum, pre-emergence
Procedure, shortened: as §2

spring wheat = assay: Test D preemergence; assay type: in vivo, Triticum aestivum; conditions: Triticum aestivum, pre-emergence
Procedure, shortened: as §2

wild oat = assay: Test D preemergence; assay type: in vivo, Avena fatua; conditions: Avena fatua, pre-emergence, scale 0-100, read-out: Plant response rating, Oat, Wild
Procedure, shortened: as §2

hairy beggarticks = assay: Test E postemergence; assay type: in vivo, Bidens pilosa; conditions: Bidens pilosa, post-emergence, read-out: Plant response rating, Beggarticks
Procedure, shortened: as §1

wild buckwheat = assay: Test D preemergence; assay type: in vivo, Polygonum convolvulus; conditions: Fallopia convolvulus, pre-emergence, scale 0-100, read-out: Plant response rating, Buckwheat, Wild
Procedure, shortened: as §2

[3] = Postemergence, 31 g ai/ha, scale 0 to 100
[4] = Postemergence, 62 g ai/ha, scale 0 to 100
[5] = Postemergence, 125 g ai/ha, scale 0 to 100
[6] = Postemergence, 250 g ai/ha, scale 0 to 100
[7] = postemergence, 16 g ai/ha, scale 0 to 100, 0 no effect, 100 complete control

N#Cc1cccc(Oc2ncc(Cl)cn2)c1-n1cc(C(F)(F)F)cn1 [Compound 58, 3-[(5-chloro-2-pyrimidinyl)oxy]-2-[4-(trifluoromethyl)-1H-pyrazol-1-yl]benzonitrile]
Cocklebur plant response rating (cocklebur; 31 g ai/ha, scale 0 to 100 (0 no effect, 100 complete control)): 0 | Plant response rating, Cocklebur (cocklebur; 125 g ai/ha): 0 | Plant response rating, Cocklebur (cocklebur; 250 g ai/ha): 50 | plant injury at 31 g/ha (spring barley; 31 g ai/ha): 15% | plant injury at 62 g/ha (spring barley; 62 g ai/ha): 20% | plant injury at 125 g/ha (spring barley; 125 g ai/ha): 30% | plant injury at 250 g/ha (spring barley; 250 g ai/ha): 40% | plant injury at 31 g/ha (winter barley [1]; 31 g ai/ha): 10% | plant injury at 62 g/ha (winter barley [1]; 62 g ai/ha): 15% | plant injury at 125 g/ha (winter barley [1]; 125 g ai/ha): 25% | plant injury at 250 g/ha (winter barley [1]; 250 g ai/ha): 50% | pest or weed control at 31 g/ha (field violet; 31 g ai/ha): 100% | pest or weed control at 62 g/ha (field violet; 62 g ai/ha): 100% | pest or weed control at 125 g/ha (field violet; 125 g ai/ha): 100% | pest or weed control at 250 g/ha (field violet; 250 g ai/ha): 100% | pest or weed control at 31 g/ha (deadnettle; 31 g ai/ha): 100% | pest or weed control at 62 g/ha (deadnettle; 62 g ai/ha): 100% | pest or weed control at 125 g/ha (deadnettle; 125 g ai/ha): 100% | pest or weed control at 250 g/ha (deadnettle; 250 g ai/ha): 100% | plant injury at 31 g/ha (winter barley [2]; 31 g ai/ha): 10% | plant injury at 62 g/ha (winter barley [2]; 62 g ai/ha): 35% | plant injury at 125 g/ha (winter barley [2]; 125 g ai/ha): 80% | plant injury at 250 g/ha (winter barley [2]; 250 g ai/ha): 100% | pest or weed control at 31 g/ha (Italian ryegrass; [3]): 10% | pest or weed control at 62 g/ha (Italian ryegrass; [4]): 20% | pest or weed control at 125 g/ha (Italian ryegrass; [5]): 35% | pest or weed control at 250 g/ha (Italian ryegrass; [6]): 60% | pest or weed control at 16 g/ha (Italian ryegrass; [7]): 10% | pest or weed control at 31 g/ha (galium; 31 g ai/ha): 70% | pest or weed control at 62 g/ha (galium; 62 g ai/ha): 100% | pest or weed control at 125 g/ha (galium; 125 g ai/ha): 100% | pest or weed control at 250 g/ha (galium; 250 g ai/ha): 100% | plant injury at 31 g/ha (winter wheat; 31 g ai/ha, scale 0 (no effect) to 100 (complete control), read-out: Plant response rating, Wheat, Winter): 0% | plant injury at 62 g/ha (winter wheat; 62 g ai/ha, scale 0-100, read-out: Plant response rating, Wheat, Winter): 20% | plant injury at 125 g/ha (winter wheat; 125 g ai/ha, scale 0-100, read-out: Plant response rating, Wheat, Winter): 50% | plant injury at 250 g/ha (winter wheat; 250 g ai/ha, scale 0-100, read-out: Plant response rating, Wheat, Winter): 90% | plant injury at 31 g/ha (spring wheat; 31 g ai/ha, scale 0 (no effect) to 100 (complete control), read-out: Plant response rating, Wheat, Spring): 0% | plant injury at 62 g/ha (spring wheat; 62 g ai/ha, scale 0-100, read-out: Plant response rating, Wheat, Spring): 15% | plant injury at 125 g/ha (spring wheat; 125 g ai/ha, scale 0-100, read-out: Plant response rating, Wheat, Spring): 75% | plant injury at 250 g/ha (spring wheat; 250 g ai/ha, scale 0-100, read-out: Plant response rating, Wheat, Spring): 100% | pest or weed control at 31 g/ha (wild oat; 31 g ai/ha): 15% | pest or weed control at 62 g/ha (wild oat; 62 g ai/ha): 25% | pest or weed control at 125 g/ha (wild oat; 125 g ai/ha): 60% | pest or weed control at 250 g/ha (wild oat; 250 g ai/ha): 100% | pest or weed control at 31 g/ha (hairy beggarticks; [3]): 65% | pest or weed control at 62 g/ha (hairy beggarticks; [4]): 80% | pest or weed control at 125 g/ha (hairy beggarticks; [5]): 90% | pest or weed control at 250 g/ha (hairy beggarticks; [6]): 95% | pest or weed control at 16 g/ha (hairy beggarticks; [7]): 60% | pest or weed control at 31 g/ha (wild buckwheat; 31 g ai/ha): 100% | pest or weed control at 62 g/ha (wild buckwheat; 62 g ai/ha): 100% | pest or weed control at 125 g/ha (wild buckwheat; 125 g ai/ha): 100% | pest or weed control at 250 g/ha (wild buckwheat; 250 g ai/ha): 100%
